Assay [1] deals with T1, human serotonin 2C receptor (h-5-HT2C) (Homo sapiens (Human), UniProt P28335). Kind of assay: [3H] mesulergine binding assay to evaluate affinity for human 5-HT2C receptor. Conditions: Test Ex. 2, h-5-HT2C/CHO membrane preparation, read-out: 5-HT2C receptor binding inhibition constant Ki.
Method: Mesulergine Binding Assay to Evaluate Affinity for Human 5-HT2C Receptor
Preparation of the Cells and Membrane Preparations
In the experiment, human serotonin 2C receptor (h-5-HT2C) was expressed in CHO cells (h-5-HT2C/CHO). The cells were incubated with UltraCHO Lipuid (trademark) (manufactured by BioWhitakker) containing 1% FBS, 400 μg/mL Geneticin, 100 U/mL penicillin-100 μg/mL streptomycin (all manufactured by Sigma Aldrich) and 250 μg/mL Zeosin (manufactured by InvivoGen) in an incubator containing 5% CO2; detached and collected using 50 mmol/L Tris-HCl (pH=7.4); homogenized with a homogenizer manufactured by Teflon (trademark); and then centrifuged (48,000×g, 25 min, 4° C.). […]
A solution of 200 μL in total was prepared by mixing 50 μL of [^3H] mesulergine (manufactured by GE Healthcare) diluted with 50 mmol/L Tris-HCl (pH=7.4) (final concentration: about 2 nmol/L), 149 μL of the h-5-HT2C/CHO membrane preparation (protein amount: 20 μg/well), and 1 μL of the test drug dissolved in dimethylsulfoxide. […] The glass fiber filter was washed twice with 250 μL of 50 mmol/L Tris-HCl (pH=7.4), placed in a plastic vial containing 4 mL of liquid scintillator (ACS-II, manufactured by Amersham) or Ecoscint A (manufactured by National Diagnostics), and the remaining radioactivity on the filter paper was assayed with a liquid scintillation counter. […]
Assay [2] concerns the target T1, human serotonin 2C receptor (h-5-HT2C). Kind of assay: 5-HT2C receptor agonistic action assay (FLIPR Calcium 4, h-5-HT2C/CHO cells; agonistic / inverse agonistic action). In kind it is cell-based. The protocol:
3-1. The Cells and Inoculation Thereof
In the experiment, human serotonin 2C receptor (h-5-HT2C) was expressed in CHO cells (h-5-HT2C/CHO). The cells were incubated with UltraCHO Lipuid (trademark) (manufactured by BioWhitakker) containing 1% FBS, 400 μg/mL Geneticin, 100 U/mL penicillin-100 μg/mL streptomycin (all manufactured by Sigma Aldrich) and 250 μg/mL Zeosin (manufactured by InvivoGen) in an incubator containing 5% CO2. On the day before using the cells, they were detached and collected using 250 μg/mL Trypsin solution (manufactured by Nacalai Tesque), then inoculated in a 96 well flat clear bottom black polystyrene TC-treated microplates (manufactured by Corning) at 40000 cells/well/60 μL in an incubator containing 5% CO2 for 16 hours to 24 hours.
3-2. 5-HT2C Receptor Agonistic Action Assay
The 5-HT2C receptor agonistic action was evaluated with FLIPR Calcium 4 Assay kit (manufactured by Molecular Devices). In specific, to the cells inoculated in the plate were added Component A of FLIPR Calcium 4 Assay kit dissolved in 100 mL of HHBP buffer (1×Hanks buffer, 20 mmol/L HEPES, both manufactured by Gibco) at an amount of 40 μL/well, and the cells were incubated in an incubator containing 5% CO2 for 1 hour. Then, the cells were set in FLIPR TETRA (trademark) (manufactured by Molecular Devices), to the cells was added the test material diluted with HHBP buffer, 2.5 mmol/L Probenecid (manufactured by Sigma) (concentration after dilution: 10 μmol/L) at an amount of 20 μL/well, and the fluorescence was measured. Then, in order to evaluate the antagonistic action of the test material, 20 μL/well of 5-HT solution (manufactured by Sigma, final concentration: 0.1 nmol/L) was further added to the cells, and the fluorescence was measured.
The 5-HT2C receptor agonistic action of each test material was calculated as a rate of fluorescence enhancement wherein 100% was defined as a value when the cells were given 10 μmol/L 5-HT. Furthermore, the 5-HT2C receptor inverse agonistic action was calculated as a rate of fluorescence decay wherein −100% was defined as a value when the cells were given 10 μmol/L SB206553 (manufactured by Sigma Aldrich). A lower value of the 5-HT2C receptor agonistic action of the test material means that the material has a higher antagonistic action. In particular, when the value of the 5-HT2C receptor agonistic action of the test material is below 0%, the material has an inverse agonistic action for 5-HT2C receptor.

The target of assay [3] is human serotonin transporter (h-SERT) (Homo sapiens (Human), UniProt P31645). Kind of assay: [3H] citalopram binding assay to evaluate human serotonin reuptake inhibitory action (h-SERT binding assay). To be noted: h-SERT binding inhibition constant Ki, Test Ex. 1.
Method: Citalopram Binding Assay to Evaluate Human Serotonin Reuptake Inhibitory Action
In the experiment, human serotonin transporter (h-SERT) was expressed in CHO cells (h-SERT/CHO). The cells were incubated with F12 containing 10% FCS, 500 μg/mL Geneticin and 100 U/mL penicillin-100 μg/mL streptmycin (all manufactured by Sigma Aldrich) in an incubator containing 5% CO2; detached and collected using a SERT buffer [50 mmol/L Tris-HCl comprising 120 mmol/L NaCl and 5 mmol/L KCl (pH=7.4)]; homogenized with a homogenizer manufactured by Teflon (trademark); and then centrifuged (50,000×g, 30 min, 4° C.). The precipitate was suspended again in the appropriate amount of SERT buffer (to give a membrane preparation), and stored at −80° C. until used. The amount of protein in the membrane preparation was assayed by Dye Reagent Concentrate (manufactured by BIO-RAD) using bovine serum albumin (manufactured by Sigma Aldrich) as a standard.
The [^3H] citalopram binding was measured according to the method disclosed in Owens M. J. et al., J. Pharm. […] The glass fiber filter was washed twice with 250 HL of the SERT buffer, placed in a plastic vial containing 4 mL of liquid scintillator (ACS-II, manufactured by Amersham) or Ecoscint A (manufactured by National Diagnostics), and the remaining radioactivity on the filter paper was assayed with a liquid scintillation counter.

Molecules are shown by their SMILES.

T1 sequence (P28335 whole entry, looked up): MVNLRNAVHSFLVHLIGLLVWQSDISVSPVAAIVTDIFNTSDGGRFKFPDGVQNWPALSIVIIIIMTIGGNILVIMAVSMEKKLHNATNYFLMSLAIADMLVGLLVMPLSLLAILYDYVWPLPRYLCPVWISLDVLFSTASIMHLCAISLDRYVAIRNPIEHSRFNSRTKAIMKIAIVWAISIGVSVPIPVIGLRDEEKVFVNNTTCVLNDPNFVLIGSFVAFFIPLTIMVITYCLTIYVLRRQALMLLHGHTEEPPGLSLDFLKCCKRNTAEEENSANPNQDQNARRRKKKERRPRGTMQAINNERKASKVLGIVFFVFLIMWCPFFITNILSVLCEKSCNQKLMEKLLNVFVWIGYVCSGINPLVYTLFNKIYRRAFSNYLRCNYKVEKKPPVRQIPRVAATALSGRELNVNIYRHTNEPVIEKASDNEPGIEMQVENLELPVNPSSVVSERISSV

As usually defined, the Ki is a dissociation constant, usually derived from enzyme kinetics or from competition with a known ligand. For `CNCc1cc(OCc2cc(Cl)ccc2F)n(CC2CCCCO2)n1` (single isomer, unassigned; (-)) [Example 474, (−)-1-{5-[(5-chloro-2-fluorobenzyl)oxy]-1-(tetrahydro-2H-pyran-2-ylmethyl)-1H-pyrazol-3-yl}-N-methylmethanamine], the inhibition constant Ki in assay [1] worked out at 0.016 µM; in assay [3], 0.011 µM. In assay [2], the “5-HT2C receptor agonistic action” value is −111%.

The record behind these values is US11312688B2, “Pyrazole compound” (Sumitomo Dainippon Pharma Co., Ltd., priority 2011, dated 2022).
